# Reference: article PMC10745054, “A Synthetic Model of the Mucosa for Oral Penetration Studies” (Membranes, 2023)
# Columns and labels:
# [1] = cited from earlier work
# [2] = In vitro permeation through porcine sublingual mucosa (intact or modified by formulation), Franz diffusion cell; type: in vitro ADME
# Text: (§1) Three types of membranes were used in this study, a synthetic membrane and two biological membranes, porcine skin and porcine sublingual oral mucosa. […] The biological membranes were a porcine sublingual mucosa and porcine skin. The porcine tongues with sublingual mucosa were supplied by the Faculty of Pharmacy of the University of Barcelona from the Hospital de Bellvitge campus according to the protocols of the ethics committee and with the supervision of the above institution. The mucous membrane was dermatomed to a thickness of 500–700 µm (Dermatome GA630, Aesculap, Tuttlingen, Germany), and portions of the sublingual oral mucosa were obtained to fit in the Franz diffusion cells. In addition, to determine the specific thickness, each mucosal portion was measured with a digital micrometer (MAHR, Göttingen, Germany). Porcine skin was obtained from the unboiled back of a Landrace large white pig (3 months old, weight around 40 kg) (supplied by the Department of Cardiology of the Clinic Hospital of Barcelona). Animal handling was approved by the Institutional Review Board and Ethics Committee of Institut d’Investigacions Biomèdiques August Pi i Sunyer (IDIBAPS), and the management of the animals conformed to the Guide for the Care and Use of Laboratory Animals. Porcine skin was dermatomed to a thickness of 500 ± 50 µm (Dermatome GA630, Aesculap, Germany) and stored at −20 °C until further use.
# The Nuclepore synthetic membrane, sublingual mucosa, and porcine skin dermatomed to a thickness of 500–700 µm were used to evaluate the permeation of drug/biocidal compounds. These studies were performed using a Franz vertical diffusion cell (Lara Spiral, Couternon, France) as described before. The receiving fluid (RF) used was PBS:EtOH (1:1) for drug permeation and EtOH:H2O (75:25) for biocide permeation, assuring sink conditions of the compounds.
# Next, a pseudoinfinite dose (300 µL) of the drug or biocidal solution was applied to each Franz cell. Solutions were applied in triplicate to determine the kinetic parameters. […] The permeation of three biocides, Fungitrol (FUN), propiconazole (PRO), and permethrin (PER), was also determined. The biocides were dissolved in ethanol, each at a concentration of 1%.
# Samples (0.2 mL) were collected at different times (0 h, 0.5 h, 1 h, 2 h, and 4 h), and the same volume of receptor fluid was immediately added back for replacement.
# (§2) The release of each compound was evaluated by determining the cumulative amount permeated (Qn, μg/cm^2), which corresponds to the cumulative amount of the substance quantified in the receiving liquid per unit of surface area of the applied sample [31].
# (§3) The experimental Qn and % compound release data were used to construct graphs showing permeation over time. […] The model was determined with the nonlinear regression software STATGRAPHICS plus 5 (Statgraphics Technologies, Inc., The Plains, VA, USA), and the best equation was selected based on the highest correlation coefficient corrected for the number of degrees of freedom (R^2 DoFs).
# Parameters were obtained from the graph. Fluxes (J, μg/cm^2/h) from the tested compounds were calculated from the slope of the linear portion of the cumulative amounts permeated through the membrane per unit surface area versus time plot. The permeability coefficients (Kp, cm/h) were obtained by dividing the J by the initial drug/biocide concentration. And Cmax represented the maxima concentration permeated for each active substance.
# As in the previous TMWL assay, dermatomed porcine sublingual mucosa and split skin at a thickness of 500–700 µm as well as the synthetic Nuclepore membrane were used in this study.
# [3] = In vitro permeation through Nuclepore synthetic membrane (intact or modified by formulation), Franz diffusion cell; type: in vitro ADME; settings: for percent permeation: at 4 h
# Text: as §1
# The Nuclepore synthetic membrane, sublingual mucosa, and porcine skin dermatomed to a thickness of 500–700 µm were used to evaluate the permeation of drug/biocidal compounds. These studies were performed using a Franz vertical diffusion cell (Lara Spiral, Couternon, France) as described before. […]
# (§4) Next, a pseudoinfinite dose (300 µL) of the drug or biocidal solution was applied to each Franz cell. […] The permeation of three biocides, Fungitrol (FUN), propiconazole (PRO), and permethrin (PER), was also determined. […]
# as §2, §3
# Parameters were obtained from the graph. Fluxes (J, μg/cm^2/h) from the tested compounds were calculated from the slope of the linear portion of the cumulative amounts permeated through the membrane per unit surface area versus time plot. […]
# [4] = In vitro permeation through porcine skin, Franz diffusion cell; type: in vitro ADME; settings: after 4 h
# Text: Three types of membranes were used in this study, a synthetic membrane and two biological membranes, porcine skin and porcine sublingual oral mucosa. […] The biological membranes were a porcine sublingual mucosa and porcine skin. The porcine tongues with sublingual mucosa were supplied by the Faculty of Pharmacy of the University of Barcelona from the Hospital de Bellvitge campus according to the protocols of the ethics committee and with the supervision of the above institution. The mucous membrane was dermatomed to a thickness of 500–700 µm (Dermatome GA630, Aesculap, Tuttlingen, Germany), and portions of the sublingual oral mucosa were obtained to fit in the Franz diffusion cells. In addition, to determine the specific thickness, each mucosal portion was measured with a digital micrometer (MAHR, Göttingen, Germany). […]
# as §4
# The release of each compound was evaluated by determining the cumulative amount permeated (Qn, μg/cm^2), which corresponds to the cumulative amount of the substance quantified in the receiving liquid per unit of surface area of the applied sample [31]. […]
compound,measurement,setting,value
"O=C(c1ccccc1)c1ccc2n1CCC2C(=O)O (centres unmarked) [Ketorolac tromethamine, ketorolac tromethamine]",Log Ko/w (pH 7.4),[1],2.3 [39]
"C[C@@H]1C[C@H]2[C@@H]3CCC4=CC(=O)C=C[C@]4(C)[C@@]3(F)[C@@H](O)C[C@]2(C)[C@@]1(O)C(=O)CO [Dexametasone, dexamethasone]",Log Ko/w (pH 7.4),[1],1.8 [40]
"CC1(C)C(C=C(Cl)Cl)C1C(=O)OCc1cccc(Oc2ccccc2)c1 (centres unmarked) [Permethrin, permethrin]",Log Ko/w (pH 7.4),[1],6.5 [44]
Cn1c(=O)c2c(ncn2C)n(C)c1=O [Caffeine],Permeability Coef. Kp,[2]; MUCOSA F3: mucosa modified with formulation 3,8.3 ± 2.5 10^−3 cm/h
same,Permeability Coef. Kp,[2]; MUCOSA F6: mucosa modified with formulation 6,49.3 ± 0.1 10^−3 cm/h
same,Permeability Coef. Kp,[2]; MUCOSA F16: mucosa modified with formulation 16,6.4 ± 0.9 10^−3 cm/h
same,percent permeation,"[2]; mucosa modified with formulation 6 (MUC F6), at 4 h",60%
same,percent permeation,"[2]; mucosa modified with hydrophobic formulation 3 (MUC F3), at 4 h",approximately 10%
same,percent permeation,"[2]; mucosa modified with liposomal formulation 16 (printed MUC F6), at 4 h",approximately 10%
same,percent permeation (release),"[2]; sublingual mucosa (MUC), at 4 h",40%
same,maximum permeation,"[3]; Nuclepore membrane (NP), between 0.5 and 4 h",50%
same,percent permeation,[3]; Nuclepore modified with formulation 6 (NP F6),65%
same,percent permeation,[3]; Nuclepore modified with hydrophobic formulation 3 (NP F3),40%
same,percent permeation,[3]; Nuclepore modified with liposomal formulation 16 (printed NP F6),40%
same,percent permeation,[4],approximately 10%
"CCCC1COC(Cn2cncn2)(c2ccc(Cl)cc2Cl)O1 (centres unmarked) [Propiconazole, propiconazole]",Log Ko/w (pH 7.4),[1],3.5 [43]
Fungitrol,Log Ko/w (pH 7.4),[1],2.4 [42]
